In patent US10184933B2, “Compositions, systems and methods for gene expression noise drug screening and uses thereof” (priority 2013, dated 2019):
“Also recorded” adds a separate entry of the source. Where a name gives a salt, the structure may show the parent alone. Read-outs that look alike come from different tables or passages of the source.

Tests used:
latent HIV-1 = settings: Bocklandt et al., 2003; cited from earlier work
HIV-1 LTR promoter [1] = assay type: cell-based
HIV-1 LTR promoter [2] = settings: shotgun imaging approach, Boehm et al., 2013; cited from earlier work
HIV-1 LTR promoter [3] = test: Two-reporter system (LTR-d2GFP and LTR-mCherry) noise measurement; assay type: cell-based; settings: FIG. 6E; for d2GFP noise / mCherry noise: known transcriptional activators; for transcriptional burst frequency (decreasing noise in mCherry): transcriptional modifiers
Method: Without being bound by theory, a destabilized reporter is required to observe transcriptional noise with shorter time scales. GFP noise magnitude (quantified by the variance over the mean fluorescence squared, CV^2) and mean fluorescence were measured by high-throughput flow cytometry 24 hours post 10 uM drug exposure. To control for extrinsic variability in gene expression due to cell volume and state a conservative gating on the population forward versus side scatter was applied (See General Methods). A second LTR driving a long-lived mCherry reporter was integrated and screened alongside the destabilized reporter drug target to control for fluctuations in global resources and post-transcriptional noise sources (FIG. 6E).
To distinguish between compounds that primarily target transcription versus post-transcriptional processes and global resources (extrinsic noise) a second reporter of the LTR promoter driving a stable mCherry gene was included in the same targeted cell population used in the drug noise screen (FIG. 6E). The stable reporter averages out and is unaffected by fluctuations due to episodic transcription. Theory predicts that the destabilized d2GFP reporter can detect transcriptional bursting noise contributions (γp>>kon,koff, where γp is the fluorescent reporter degradation rate) while the two reporters together will move their noise magnitudes to changes in non-transcriptional noise sources. Filtering out non-transcriptional noise signatures of VM hits increases the probability for synergistic reactivation of latency. Noise from the two reporters was compared using the same processing as the LTR-d2GFP. The LTR-mCherry ΔCV^2 of the 85 selected VMs primarily land along the ΔCV^2 d2GFP axis. […]. Of these 25 compounds 15 were identified as modifiers of cell cycle, ATP, inflammation, post-translational modifications, and translation.
In addition to the GFP reporter in the LTR-d2GFP cell line, an LTR driving a long half-life mCherry reporter was present in the cell line. […] To remove compounds that altered CV^2 post transcriptionally, compounds that affected the CV^2 long-lived red reporter while conserving its mean mCherry level were removed. This method continues development of the original and decade-old 2-reporter system for intrinsic versus extrinsic noise measurements in bacteria (Elowitz et al., (2002) Science 297:1183-1186).

[4] = system: latent HIV-1 in JLat 8.6 cells; assay type: cell-based
[5] = >500 nM for more than 2 days; Williams et al., 2004; cited from earlier work
JLat cell line 8.6 = system: JLat cell line 8.6
Method: FIG. 17 schematically depicts reactivation percentage versus drug toxicity for conventional reactivation cocktails (e.g. TNF+Prostratin, SAHA+Prostratin, SAHA+TNF+Prostratin) and 21 cocktails containing noise-enhancer compounds in combination with TNF+Prostratin. Controls: TNF alone, Prostratin alone, and Untreated, as indicated. Measurements were performed in duplicate on JLat cell line 8.6 after 48 h treatment. […] Details are described, e.g., in Example 9.
To test whether reactivation could be further optimized, the doses of noise enhancers and activators were varied (FIG. 14).

HIV-1 LTR promoter [6] = test: Two-reporter system (LTR-d2GFP and LTR-mCherry) noise measurement; assay type: cell-based; settings: alternate set of integration sites
[7] = in vivo, cited from earlier work
[8] = system: latent HIV-1 in JLat 9.2 cells; test: HIV-1 latency reactivation in JLat 9.2 cells; assay type: cell-based
Method: Jurkat cells were cultured in RPMI 1640 supplemented with 10% FBS and 1% penicillin-streptomycin. JLat 6.3, JLat 8.6, and JLat 9.2 cells are Jurkat T cell lines containing integrated but transcriptionally latent HIV-1 proviruses.
Drug treatments were performed for 24 hours at 10 uM final concentration in 96-well plates. Compounds were automatically added into 200 μl cultures at the final concentration of 0.1% DMSO. […] Plates were kept in the incubator until measurement and each well was automatically mixed before samples were analyzed. 5×10^4 of all live cells that passed a specific forward scatter (FSC)—side scatter (SSC) gate were collected from each well for noise magnitude measurements from which a conservative gating was applied for about 3×10^3 cells of similar FSC vs SSC to reduce extrinsic noise contributions primarily due to differences in cell volume and state. Each 96-well plate included a column of untreated control cells, cells treated with TNFα (positive control) and one well of non-′ fluorescent naïve Jurkat cells. For HIV-1 reactivation experiments 1×10^4 live cells were collected.

[9] = system: latent HIV-1 in JLat 15.4; test: HIV-1 latency reactivation in JLat 15.4 cells; assay type: cell-based
[10] = system: latent HIV-1 in primary T-cells; assay type: cell-based; settings: primary T-cell model
Method: FIG. 18A schematically depicts a primary T-cell model of HIV-1 latency 48 h after reactivation with PMA or a subset of noise enhancers (% reactivation percentage is calculated relative to maximal reactivation potential). […] The horizontal line represents the mean calculated Bliss Independence Score (C. I. Bliss, Ann. Appl. Biol. 26:585-615 (1939)), a measure for strict additivity for all of the compounds. FIG. 18B schematically depicts stochastic simulations of noise suppression, which reduces noise without altering the mean expression level but limits reactivation induced by an activator. […] Details are described, e.g., in Example 10.

[11] = known transcriptional modulators applied to the isoclone target, FIG. 6D

CC1=C[C@H]2[C@@]3(O)[C@H](C)C[C@]4(OC(=O)Cc5ccccc5)C([C@@H]3C=C(CO)C[C@]2(O)C1=O)C4(C)C (stereo partly drawn) [DPP, 12-deoxyphorbol 13-phenylacetate]
potency relative to prostratin (latent HIV-1): 20-40 fold

Cc1sc2c(c1C)C(c1ccc(Cl)cc1)=N[C@@H](CC(=O)OC(C)(C)C)c1nnc(C)n1-2 [JQ1, t-Butyl-2-((6S)-4-(4-chlorophenyl)-2,3,9-trimethyl-6H-thieno[3,2-f][1,2,4]triazolo[4,3-a][1,4]diazepin-6-yl)acetate]
variability in gene expression (noise magnitude) (HIV-1 LTR promoter [1]; [11]): increase variability in gene expression; also recorded: variability enhancers
noise magnitude across integration sites (HIV-1 LTR promoter [2]): global increase in noise magnitude

CC(=O)O[C@@]12C[C@@H](C)[C@@]3(O)[C@@H](C=C(CO)C[C@]4(O)C(=O)C(C)=C[C@@H]34)[C@@H]1C2(C)C [Prostratin, 12-deoxyphorbol 13-acetate]
burst frequency (HIV-1 LTR promoter [1]; activator drugs, FIG. 6D): increase burst frequency
mean expression level (HIV-1 LTR promoter [1]; [11]): increase mean expression level
variability in gene expression (noise magnitude) (HIV-1 LTR promoter [1]; [11]): decrease noise magnitude
variability in gene expression (noise magnitude) (HIV-1 LTR promoter [1]; known transcriptional modulators applied to the isoclone target, FIG. 6D, listed as prostratin): decrease variability in gene expression
d2GFP noise (HIV-1 LTR promoter [3]): decrease both mCherry and d2GFP noise
mCherry noise (HIV-1 LTR promoter [3]): decrease both mCherry and d2GFP noise
transcriptional burst frequency (decreasing noise in mCherry) (HIV-1 LTR promoter [3]): increase transcriptional burst frequency
reactivation by activator alone ([4]; Prostratin alone, 48 hr): 6%
toxicity [5]: substantial growth arrest and cell death

O=C(CCCCCCC(=O)Nc1ccccc1)NO [SAHA, N-hydroxy-N′-phenyl-octanediamide]
identified as variability enhancer (VE) in noise screen (HIV-1 LTR promoter [1]; Pharmakon 1600 library, 10 uM, 24 hours, FIG. 10): variability enhancers
variability in gene expression (noise magnitude) (HIV-1 LTR promoter [1]; [11]): increase variability in gene expression; also recorded: variability enhancers
d2GFP noise (HIV-1 LTR promoter [3]): increase d2GFP noise
mCherry noise (HIV-1 LTR promoter [3]): decrease mCherry noise
transcriptional burst frequency (decreasing noise in mCherry) (HIV-1 LTR promoter [3]): increase transcriptional burst frequency
off-target cytotoxicity for uninfected cells (JLat cell line 8.6): substantial off-target cytotoxicity
transcriptional variability (d2GFP) with dose response (HIV-1 LTR promoter [6]): increasing transcriptional variability

CC(/C=C/C(=O)NO)=C\[C@@H](C)C(=O)c1ccc(N(C)C)cc1 [TSA, [R-(E,E)]-7-[4-(Dimethylamino)phenyl]-N-hydroxy-4,6-dimethyl-7-oxo-2,4-heptadienamide]
variability in gene expression (noise magnitude) (HIV-1 LTR promoter [1]; [11]): increase variability in gene expression; also recorded: variability enhancers
d2GFP noise (HIV-1 LTR promoter [3]): increase d2GFP noise
mCherry noise (HIV-1 LTR promoter [3]): decrease mCherry noise
transcriptional burst frequency (decreasing noise in mCherry) (HIV-1 LTR promoter [3]): increase transcriptional burst frequency
transcriptional variability (d2GFP) with dose response (HIV-1 LTR promoter [6]): increasing transcriptional variability

CCCC(CCC)C(=O)O [VPA, 2-propylpentanoic acid]
variability in gene expression (noise magnitude) (HIV-1 LTR promoter [1]; [11]): increase variability in gene expression; also recorded: variability enhancers
d2GFP noise (HIV-1 LTR promoter [3]): increase d2GFP noise
mCherry noise (HIV-1 LTR promoter [3]): decrease mCherry noise
time of peak serum levels ([7]; po): 1 to 4 h
serum half-life [7]: 6 to 16 h

COC(=O)C1=C(C)NC(C)=C(C(=O)OCCN2CCN(C(c3ccccc3)c3ccccc3)CC2)C1c1cccc([N+](=O)[O-])c1 (stereo not drawn) [VS1, manidipine hydrochloride]
decrease of TNF-induced reactivation ([4]; JLat 8.6): ~40%
decrease of TNFα-mediated reactivation [8]: about 40%
decrease of TNF-induced reactivation [9]: ~40%
decrease of Prostratin-induced reactivation [10]: ~50%
